According to patent publication US4826819A, “Piperidine analgesics” (priority 1986, dated 1989):
Counter-ions that a name gives are not always drawn. Like-named read-outs stand apart in the source and are kept apart here.

What was measured:
[1] = Mouse Tail-flick test (analgesic activity); format: in vivo, mouse (male Charles River mice); details: for % Protection (percent number of mice doubling the initial reaction time): 1 mg Kg^-1, 30 min after dosing
[2] = target: T1, μ opioid receptor (μ sites) (Cavia porcellus, UniProt A0ACM8Q262); experiment: Opiate receptor binding to μ sites (3H-DAGO)
T1 construct: 3H-DAGO displacement
T1 sequence (A0ACM8Q262 1-400): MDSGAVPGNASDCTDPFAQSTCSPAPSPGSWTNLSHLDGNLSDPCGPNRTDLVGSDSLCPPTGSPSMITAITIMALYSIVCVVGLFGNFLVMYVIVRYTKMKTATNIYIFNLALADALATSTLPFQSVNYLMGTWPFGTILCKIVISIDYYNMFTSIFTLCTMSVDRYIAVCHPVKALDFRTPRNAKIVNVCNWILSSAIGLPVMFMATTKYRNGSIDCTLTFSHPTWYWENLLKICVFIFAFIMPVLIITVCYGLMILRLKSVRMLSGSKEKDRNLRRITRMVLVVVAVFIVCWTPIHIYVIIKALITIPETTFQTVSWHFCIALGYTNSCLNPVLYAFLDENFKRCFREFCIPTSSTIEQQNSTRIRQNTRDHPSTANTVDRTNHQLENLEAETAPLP
Protocol: (§1) Radio receptor binding to μ and k sites is performed on fresh guinea pig brain homogenate prepared according to Kosterlitz. (1981).
(§2) Whole brain without cerebellum is homogenized in 50 mM, Tris-buffer (pH 7.4 at 0° C.) and centrifuged at 49,000×g×10 min. The pellet is then resuspended in the same buffer, incubated at 37° C. for 45 min. and centrifuged again.
(§3) 1.9 ml of the final homogenate (1:100 in Tris-pH 7.4, 0° C.) is used for the binding assay.
Binding to μ sites (Magnan J., 1982)
^3 H [D-Ala^2, MePhe^4, Gly-ol^5 ] Enkephalin (^3 H-DAGO), an enkephalin analogue that binds selectively to μ-receptors, is added to the biological substrate and incubated at 25° C. for 40 min., filtered through Whatman GF-C and washed with ice-cold Tris-buffer.
The filters are then dried, solubilized in Filtercount and the radioactivity monitored. Non specific binding is determined in the presence of 10^-6 M Naloxone.
(§4) For the calculation of the kinetic parameters of the binding of labelled and unlabelled ligands, the equilibrium dissociation constant (KD), and the inhibition constant (Ki) and the maximum number of binding sites (B max) are determined from saturation curves and competition experiments (Hill 1910; Scatchard 1949; Cheng and Prusoff 1973; Gillan et al. 1980).
(§5) A concentration of radioligand near KD is used in the binding assays evaluating our compounds.

[3] = target: T2, K (Kappa) opioid receptor (K sites) (Cavia porcellus, UniProt P41144); experiment: Opiate receptor binding to K sites (tritiated Ethylketocyclazocine); parameters: species or system guinea pig
T2 construct: performed on fresh guinea pig brain homogenate; from tissue; host or cells: guinea pig whole brain without cerebellum, homogenate
T2 sequence (P41144 whole entry): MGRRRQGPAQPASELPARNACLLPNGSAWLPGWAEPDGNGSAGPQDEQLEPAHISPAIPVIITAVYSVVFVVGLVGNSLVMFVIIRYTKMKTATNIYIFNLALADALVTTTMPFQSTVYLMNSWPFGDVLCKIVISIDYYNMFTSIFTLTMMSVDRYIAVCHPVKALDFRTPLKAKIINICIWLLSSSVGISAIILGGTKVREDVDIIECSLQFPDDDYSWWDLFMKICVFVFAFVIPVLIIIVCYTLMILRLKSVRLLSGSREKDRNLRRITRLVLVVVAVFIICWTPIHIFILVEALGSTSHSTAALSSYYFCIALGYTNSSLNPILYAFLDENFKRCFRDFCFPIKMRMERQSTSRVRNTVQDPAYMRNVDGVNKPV
Protocol: as §1, §2, §3
Binding to K sites (Magnan J., 1982)
The binding of tritiated Ethylketocyclazocine to brain homogenate is measured in the presence of 100 nanomolar D-Ala-D-LeuEnkephalin (DADLE) and 100 nanomolar DAGO, added to saturate the δ and μ opioid receptors respectively.
Final homogenate with solutions of the cold ligand and of the labelled ligand is incubated for 40 min at 25° C., filtered through Whatman GF/C glass filter discs and washed.
The radioactivity bound to the filters is counted by liquid scintillation spectrophotometry.
MR 2266,500 nM is utilized to determine the saturable binding.
as §4, §5

[4] = sc, 0.5 h, subcutaneous, read-out: ED50 subcutaneous
[5] = guinea pig brain homogenate, 25° C., 40 min, read-out: Ki, opiate receptor binding, μ
[6] = guinea pig brain homogenate, tritiated Ethylketocyclazocine with 100 nM DADLE and 100 nM DAGO, 25° C., 40 min, read-out: Ki, opiate receptor binding, K

SMILES | ED50 ([1]; oral (os), read-out: ED50 oral) [mg/kg] | ED50 [1, 4] [mg/kg] | % Protection (percent number of mice doubling the initial reaction time) ([1]; subcutaneous) [%] | Ki [2, 5] [nM] | Ki [3, 6] [nM] | Ki ([2]; read-out: Ki, opiate receptor binding, μ, guinea pig brain homogenate, 25° C., 40 min) [nM] | Ki [3] [nM]
O=C(Cc1ccc(Br)cc1)N1CCCCC1CN1CCCC1 (racemic) [Example 6, (2R,S)-1-(4-bromophenylacetyl)-2-(1-pyrrolidinylmethyl)piperidine hydrochloride] | 4.12 | 0.52 | 80 | 3130 | 6.61 |  | 
O=C(Cc1ccc(C(F)(F)F)cc1)N1CCCC[C@H]1CN1CCCC1 [Example 3, (2S)-1-(4-trifluoromethylphenylacetyl)-2-(1-pyrrolidinylmethyl) piperidine hydrochloride sesquihydrate] | 0.67 | 0.14 |  |  |  | 2540 | 4.05
O=C(Cc1cccc(C(F)(F)F)c1)N1CCCCC1CN1CCCC1 (racemic) [Example 2, (2R,S)-1-(3-trifluoromethylphenylacetyl)-2-(1-pyrrolidinylmethyl)piperidinehydrochloride hemihydrate] | 4.61 | 0.43 |  | > 10000 | 3.07 |  | 
O=C(Cc1cccc([N+](=O)[O-])c1)N1CCCCC1CN1CCCC1 (racemic) [Example 1, (2R,S)-1-(3-nitrophenylacetyl)-2-(1-Pyrrolidinylmethyl) piperidine hydrochloride] |  | 0.97 |  | > 10000 | 5.96 |  | 
O=C(Cc1ccc(C(F)(F)F)cc1)N1CCCCC1CN1CCCC1 (racemic) [Example 5, (2R,S)-1-(4-trifluoronethylphenylacetyl)-2-(1pyrrolidinylmethyl)piperidine hydrochloride] | 1.08 | 0.23 | 100 | 3090 | 3.59 |  | 
O=C(Cc1ccc([N+](=O)[O-])cc1)N1CCCCC1CN1CCCC1 (racemic) [Example 4, (2R,S)-1-(4-nitrophenylacetyl)-2-(1-pyrrolidinylmethyl)piperidine hydrochloride] | 5.45 | 0.55 | 80 | 12800 | 37.9 |  | 
